Measured values from US20150140085A1, “FORMULATIONS COMPRISING IBRUTINIB” (PRINCIPIA BIOPHARMA INC., priority 2012, published 2015).

Columns and labels:
[1] = Determination of bioavailability, stomach (oral gavage) v. intraduodenal administration; assay type: in vivo, Sprague dawley rats; settings: 20 mg/kg in Captex 355, fed female rats; for AUC / Cmax: plasma
Experimental: Fed female Sprague dawley rats, 225-250 g with surgically implanted intra-duodenal catheters were obtained commercially. Rats were dosed solutions of ibrutinib via bolus injection: oral gavage was done to measure exposure after oral dosing, or dosing via administration through the intra-duodenal catheter to measure exposure bypassing the stomach. Ibrutinib was dosed at 20 mg/kg at a dose volume of 2 ml/kg. Blood was withdrawn at time points out to 24 hours and Ibrutinib quantitated via LC/MS/MS to obtain plasma concentrations. PK parameters were calculated via commercially available software and measures of exposure were used to assess differences in dosing routes.

[2] = rats, reported; cited from earlier work

Substance: ibrutinib
- F (bioavailability) ([1]; ID (intra-duodenal catheter)): 100%
- AUC ([1]; ID (intra-duodenal catheter)): 4943 ng·h/mL
- Cmax ([1]; ID (intra-duodenal catheter)): 884 ng/mL
- F (bioavailability) ([1]; PO (oral gavage)): 21%
- AUC ([1]; PO (oral gavage)): 998 ng·h/mL
- Cmax ([1]; PO (oral gavage)): 243 ng/mL
- oral bioavailability [2]: 22.8%
